Measured values published in article PMC9321742 (Viruses, 2022).
Several values for one entry are separate records, joined by “and”; a condition that tells them apart may be missing. Equal entries are not always repeated.

System: SARS-CoV-2 B.1 (D614G) wild-type
Format: cell-based

O=c1nc(NO)ccn1[C@@H]1O[C@H](CO)[C@@H](O)[C@H]1O [EIDD-1931]
Increase in antiviral activity by the P-gp inhibitor: negligible | IC50 (read-out: IC50 WT Mean ± SD): 1.1 µM and 1.5 µM
